# Assay results published in PubChem BioAssay (NCI).
#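 Method: 48-hour compound exposure of cells in 96-well plates, five concentrations, linear interpolation of endpoints. GI50 = concentration required for 50% inhibition of growth. TGI marks complete inhibition of growth.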
# What was measured:
# Assay in all cases: growth of human tumour cells (NCI), 48 h
# SF-268 CNS = system: SF-268 CNS
# MCF7 breast = system: MCF7 breast
# SNB-75 CNS = system: SNB-75 CNS
# SK-MEL-2 melanoma = system: SK-MEL-2 melanoma
# OVCAR-8 ovarian = system: OVCAR-8 ovarian
# SW-620 colon = system: SW-620 colon
# CCRF-CEM leukemia = system: CCRF-CEM leukemia
# SF-295 CNS = system: SF-295 CNS
# RXF 393 renal = system: RXF 393 renal
# SK-OV-3 ovarian = system: SK-OV-3 ovarian
# LOX IMVI melanoma = system: LOX IMVI melanoma
# M14 melanoma = system: M14 melanoma
# ACHN renal = system: ACHN renal
Compound,TGI (SF-268 CNS) [µM],TGI (MCF7 breast) [µM],TGI (SNB-75 CNS) [µM],TGI (SK-MEL-2 melanoma) [µM],TGI (OVCAR-8 ovarian) [µM],TGI (SW-620 colon) [µM],TGI (CCRF-CEM leukemia) [µM],TGI (SF-295 CNS) [µM],TGI (RXF 393 renal) [µM],TGI (SK-OV-3 ovarian) [µM],TGI (LOX IMVI melanoma) [µM],TGI (M14 melanoma) [µM],TGI (ACHN renal) [µM],GI50 (M14 melanoma) [µM],GI50 (SK-MEL-2 melanoma) [µM],GI50 (CCRF-CEM leukemia) [µM],GI50 (SF-295 CNS) [µM],GI50 (ACHN renal) [µM],GI50 (RXF 393 renal) [µM],GI50 (LOX IMVI melanoma) [µM]
CSc1nc2c(ncn2C2OC(CO)C(O)C(O)C2O)c(=O)n1C (centres undefined),> 100,> 100,> 100,> 100,> 100,> 100,> 100,> 100,> 100,> 100,> 100,,,,,,,,,
Nc1nc2cc(COc3ccc(C(=O)O)cc3)ccc2nc1-c1ccccc1,> 10,> 10,> 10,> 10,,> 10,> 10,> 10,> 10,> 10,> 10,> 10,> 10,,,,,,,
C=CCn1c(C)nc2cc(Nc3nc(N4CCCC4)nc4nc[nH]c34)ccc21,,,,> 100,,,> 100,> 100,> 100,,> 100,> 100,> 100,29.6,> 100,54.5,> 100,> 100,> 100,> 100
COc1cc(C2c3cc4c(cc3[C@@H](Nc3cnc5ccccc5c3)C3COC(=O)[C@H]23)OCO4)cc(OC)c1O (some centres undefined),3.9,> 31.7,,3.58,5,,0.463,1.14,3,6.18,,,,,,,,,,
O=C(N/N=C/c1cc(Cl)cc(Cl)c1[O-])c1ccccc1O.O=C(N/N=C/c1cc(Cl)cc(Cl)c1[O-])c1ccccc1O.[Mn+2],11.5,,22.9,11.3,2.3,17.7,,11.8,5.7,3.58,14.1,2.51,11.9,,0.285,,,,,
C=C1C(=O)OC2/C=C(CO)/C=C\C3OC3(C)CC(OC(=O)/C(C)=C/COC(C)=O)C12 (centres undefined),15.4,16.4,20.7,7.88,7,3.24,,28.3,4.12,31.7,3.05,5.64,9.16,,,,,,,
O=C1Nc2ccccc2C1(O)Cc1ccccn1 (centres undefined),> 100,> 100,> 100,> 100,> 100,> 100,> 100,> 100,> 100,> 100,> 100,> 100,> 100,,,,,,,
C=C1C(=O)OC2/C=C(\CO)C3OC3C3OC3(C)CC(OC(=O)/C(=C/C)COC(C)=O)C12 (centres undefined),27.1,20.1,23,6.78,6.22,2.8,,46.7,3.96,45.7,3.24,6.64,9.68,,,,,,,
O=c1c2cc([N+](=O)[O-])ccc2[nH]n1Cc1ccccc1Cl,> 100,,> 100,,> 100,> 100,> 100,> 100,> 100,,> 100,> 100,> 100,,,,,,,
O=C1Sc2sc(=S)sc2SC1c1ccccc1 (centres undefined),> 100,> 100,> 81.4,> 100,> 100,39.3,91.5,> 100,76.6,> 100,> 82.6,,,,,,,,,
Cc1ccnn1CCc1ccc(Cl)cc1Cl,> 100,> 100,> 100,,> 100,> 100,> 100,52.9,82.9,> 100,> 100,> 100,> 100,,,,,,,
COc1cccc(/C=N/[N+](C)(C)C)c1O,> 10,> 10,> 10,> 10,> 10,> 10,> 10,> 10,> 10,> 10,> 10,> 10,> 10,,,,,,,
CC1=CC2=C(C=O)C(=O)[C@](C)(O)[C@@H](O)C2=CO1,> 69.4,> 100,> 100,62.2,> 100,> 77.6,59.3,> 100,52.3,76.3,> 74.3,,,,,,,,,
CS(C)(=O)=Nn1c(=O)n2n(c1=O)[C@H]1CC[C@@H]2C1,> 100,> 100,> 100,> 100,> 100,> 100,> 100,> 100,> 100,> 100,> 100,> 100,> 100,,,,,,,
Cc1c2cnccc2c(C)c2c1c1ccccc1n2CCCCCCCl,> 50,> 50,> 31.6,> 50,> 50,> 50,> 50,> 50,> 50,> 50,> 50,,,,,,,,,
COc1ccc2[nH]c(=O)cc(C)c2c1[N+](=O)[O-],> 100,,55.7,> 100,> 100,> 100,> 100,> 100,,> 100,> 100,> 100,> 100,,,,,,,
O=C(O)C(C1NCCS1)N1C(=O)c2ccccc2C1=O (centres undefined),> 100,> 100,> 100,> 100,> 100,> 100,> 100,> 100,> 100,> 100,> 100,> 100,> 100,,,,,,,
